# According to patent publication US12448366B2, “Solid forms of pralsetinib” (Rigel Pharmaceuticals, Inc., priority 2020, dated 2025):
# Where two headings read alike, the source gives them in different places.
# Key:
# Type in all cases: physicochemical
# [1] = Co-milling co-crystal screening, XRPD; conditions: co-milling with freebase
# Method: About 30 mg of Compound (I) freebase and 1.05 eq. of co-former were direct weighed into the milling capsule and manually mixed before the addition of 1 volume of solvent (MtBE, MeOAc, or EtOH). Each system was milled once for 30 seconds before solids were collected. Samples of the wet material were taken for XRPD of the ‘wet’ material before drying under active vacuum at 50° C. for 2 hours. Unique patterns were further exposed to 97% R.H. for 24 hours.
# [2] = Co-melting co-crystal screening, XRPD; conditions: co-melting with pralsetinib freebase, 1.05 eq. co-former
# Method: The resulting powder was packed into a 100 μL DSC pan and heated at a rate of 10° C./min to 10° C. above the melting temperature of the lowest melting component. The experiment was isothermally held for 5 min before cooling to room temperature at a rate of 10° C./min. Samples were then taken for XRPD.
# [3] = Dynamic vapor sorption (DVS); conditions: for DVS Mass Change: glutarate and succinate: between 2% and 90% relative humidity
# Method: Dynamic Vapor Sorption (DVS) was done using a DVS Intrinsic 1. The sample is loaded into a sample pan and suspended from a microbalance. A typical sample mass for DVS measurement is 25 mg. Nitrogen gas bubbled through distilled water provides the desired relative humidity. A typical measurement comprises the steps: • 1—Equilibrate at 50% RH • 2—50% to 2%. (50%, 40%, 30%, 20%, 10% and 2%) • a. Hold minimum of 5 mins and maximum of 60 minutes at each humidity. The pass criteria is less than 0.002% change • 3—2% to 95% (2%, 10%, 20%, 30%, 40%, 50%, 60%, 70%, 80%, 90%, 95%) • a. Hold minimum of 5 mins and maximum of 60 minutes at each humidity. The pass criteria is less than 0.002% change • 4—95% to 2% (95%, 80%, 70%, 60%, 50%, 40%, 30%, 20%, 10%, 2%) • a. Hold minimum of 5 mins and maximum of 60 minutes at each humidity. The pass criteria is less than 0.002% change • 5—2% to 50% (2%, 10%, 20%, 30%, 40%, 50%) • a. Hold minimum of 5 mins and maximum of 60 minutes at each humidity. The pass criteria is less than 0.002% change High Pressure Liquid Chromatography (HPLC)
# Dynamic Vapor Sorption (DVS) was performed using a DVS Intrinsic 1. The samples (12-31 mg) was loaded into a sample pan, suspended from a microbalance and exposed to a humidified stream of nitrogen gas. The sample was held for a minimum of 5 min at each level and only progressed to the next humidity level if there was <0.002% change in weight between measurements (interval: 60 seconds) or 240 min had elapsed. The following program was used: • 1—Equilibration at 50% RH • 2—50% to 2%. (50%, 40%, 30%, 20%, 10% and 2%) • 3—2% to 95% (2%, 10%, 20%, 30%, 40%, 50%, 60%, 70%, 80%, 90%, 95%) • 4—95% to 2% (95%, 80%, 70%, 60%, 50%, 40%, 30%, 20%, 10%, 2%) • 5—2% to 50% (2%, 10%, 20%, 30%, 40%, 50%) High Performance Liquid Chromatography (HPLC)
# [4] = One week (7 days) slurry stability by XRPD and HPLC; conditions: for stability slurrying 7 days in EtOAc / stability slurrying 7 days in EtOH / stability slurrying 7 days in EtOH:water (95:5 vol): XRPD and HPLC
# [5] = Salt screening: XRPD of wet cake, after drying under vacuum at 50° C., after exposure to 97% relative humidity; conditions: XRPD; for stability of salt solid form to humidification: 97% (>95%) relative humidity; for stability of salt solid form to drying: vacuum at 50° C.
# Method: Stock solutions of counter-ion were prepared in EtOH, MeOH, or EtOAc, depending on solubility. […] The solvent was allowed to evaporate at room temperature over the weekend and then placed at 50° C. under vacuum for 3 hours to remove any remaining solvent. Approximately 25 volumes solvent (0.6 mL) was added to each vial for screening. The three solvents selected were EtOH, EtOAc, and IPA:water (9:1 vol). […] XRPD analysis was done in three stages. XRPD of the wet cake was done for all samples. Unique solids were then left on XRPD plates and dried under vacuum at 50° C. XRPD of unique dry solids was then done. […] The humid environment was generated by placing a beaker of saturated potassium sulfate in water in a sealed container. All XRPD patterns were compared to counter ion XRPD patterns and known free base patterns. Where solids were not of sufficient quantity to isolate, the solvent was evaporated at room temperature, the material dried at 50° C. under active vacuum for 3 hours, and then reslurried at room temperature in either MtBE or IPAc overnight after heating to 45° C. for 30 minutes.
# [6] = Solubility in water and simulated fluids (fasted/fed state simulated intestinal fluid, fasted state simulated gastric fluid); conditions: for solubility: thermodynamic from solid
# [7] = Humidity exposure, 75% relative humidity at 40° C. for one week, XRPD; conditions: for stability on exposure to 75% relative humidity at 40° C.: one week / 7 days, XRPD
# [8] = Drying of free base solid forms (XRPD); conditions: for behaviour upon drying: XRPD
structure (smiles),measurement,setting,value
Nc1ccc(C(=O)O)cc1 [4-Aminobenzoic Acid],Wet (XRPD),[1]; solvent EtOH,FB-C
same,Wet (XRPD),"[1]; solvent MtBE, MeOAc",FB-C + 4-Aminobenzoic
O=C(O)c1ccc(O)cc1 [4-Hydroxybenzoic Acid],Dry (XRPD),[2],Am.
same,Wet (XRPD),"[1]; solvent MtBE, MeOAc, EtOH",FB-C
O=C(O)c1ccccc1 [Benzoic Acid],Dry (XRPD),[2],Am.
same,Wet (XRPD),"[1]; solvent MtBE, MeOAc, EtOH",FB-C
O=C(O)c1cc(O)ccc1O [Gentisic Acid],Dry (XRPD),[2],Am.
same,Wet (XRPD),"[1]; solvent MtBE, MeOAc, EtOH",FB-C
"CO[C@]1(C(=O)N[C@@H](C)c2ccc(-n3cc(F)cn3)nc2)CC[C@H](c2nc(C)cc(Nc3cc(C)[nH]n3)n2)CC1 [Solid Form 14-A, pralsetinib]",hysteresis in the DVS plot,[3],minimal hysteresis
same,mass change by DVS,"[3]; between 2% and 90% relative humidity, listed as solid form 14-A",0.94 wt. %
same,mass change by DVS,"[3]; between 15% and 75% relative humidity, listed as solid form 14-A",0.86 wt. %
same,DVS Mass Change,[3]; listed as Phosphate 14-A,0.94 wt. %
same,reversibility of the DVS mass change,[3]; listed as solid form 14-A,appears to be reversible
same,Stability 7-day slurry,[4],Stable
same,stability slurrying 7 days in EtOAc,[4]; listed as solid form 14-A,stable
same,stability slurrying 7 days in EtOH,[4]; listed as solid form 14-A,stable
same,stability slurrying 7 days in EtOH:water (95:5 vol),[4]; listed as solid form 14-A,stable
same,reduction (HPLC purity) after 7 days slurry,[4]; materials isolated from EtOAc,0.07%
same,stability of salt solid form to humidification,[5]; listed as Pattern 14-A,stable
same,stability of salt solid form to humidification,[5]; listed as phosphate 14-A,stable
same,stability of salt solid form to humidification,[5]; listed as solid form 14-A,stable
same,stability of salt solid form to drying,[5]; listed as Pattern 14-A,stable
same,stability of salt solid form to drying,[5]; listed as phosphate 14-A,stable
same,stability of salt solid form to drying,[5]; listed as solid form 14-A,stable
same,solubility,"[6]; fasted state simulated gastric fluid, fassgf or other biorelevant, read-out: Solubility in fasted state simulated gastric fluid",1760 µg/mL
same,residual solid after solubility test,"[6]; fasted state simulated gastric fluid, listed as solid form 14-A",amorphous
same,residual solid after solubility test,[6]; fasted state simulated intestinal fluid,pralsetinib freebase solid form A
same,residual solid after solubility test,[6]; fed state simulated intestinal fluid,amorphous
same,solubility,"[6]; fed state simulated intestinal fluid, fessif, read-out: Solubility in fed state simulated intestinal fluid",490 µg/mL
same,Solubility in fasted state simulated intestinal fluid,[6]; listed as solid form 14-A,0.20 mg/mL
same,Solubility in water,[6]; listed as solid form 14-A,1.70 mg/mL
same,solubility in water,[6]; listed as solid form 14-A,high solubility
same,residual solid after solubility test,[6]; water,XRPD Pattern 14-A
same,Stability 40° C./75% RH,"[7]; XRPD pattern after exposure, listed as Phosphate 14-A",Stable
same,stability on exposure to 75% relative humidity at 40° C.,[7]; listed as solid form 14-A,stable
"CO[C@]1(C(=O)N[C@@H](C)c2ccc(-n3cc(F)cn3)nc2)CC[C@H](c2nc(C)cc(Nc3cc(C)[nH]n3)n2)CC1 [Solid Form 15-A, pralsetinib]",mass change by DVS,"[3]; between 2% and 90% relative humidity, listed as solid form 15-A",3.4 wt. %
same,mass change by DVS,"[3]; between 15% and 75% relative humidity, listed as solid form 15-A",1.9 wt. %
same,DVS Mass Change,[3]; listed as Succinate 15-A,3.40 wt. %
same,reversibility of the DVS mass change,[3]; listed as solid form 15-A,appears to be reversible
same,stability slurrying 7 days in EtOAc,[4]; listed as Solid form 15-A,stable
same,stability slurrying 7 days in EtOH,[4]; listed as Solid form 15-A,stable
same,reduction in purity after 7 days slurry,[4]; EtOH:water (95:5 vol) slurry,0.13%
same,stability slurrying 7 days in EtOH:water (95:5 vol),[4]; listed as Solid form 15-A,converted to Pattern 15-C
same,stability of salt solid form to humidification,[5]; listed as Pattern 15-A,stable
same,stability of salt solid form to humidification,[5]; listed as succinate 15-A,stable
same,stability of salt solid form to drying,[5]; listed as succinate 15-A,stable
same,solubility in simulated gastric fluid,[6],high solubility
same,residual solid after solubility test,"[6]; fasted state simulated gastric fluid, listed as solid form 15-A",solid form 15-D
same,Solubility in fasted state simulated gastric fluid,[6]; listed as solid form 15-A,1.12 mg/mL
same,Solubility in fasted state simulated intestinal fluid,[6]; listed as solid form 15-A,0.02 mg/mL
same,Solubility in fed state simulated intestinal fluid,[6]; listed as solid form 15-A,0.84 mg/mL
same,Solubility in water,[6]; listed as solid form 15-A,0.45 mg/mL
same,stability on exposure to 75% relative humidity at 40° C.,[7]; listed as Solid form 15-A,converted to Pattern 15-A+B
"CO[C@]1(C(=O)N[C@@H](C)c2ccc(-n3cc(F)cn3)nc2)CC[C@H](c2nc(C)cc(Nc3cc(C)[nH]n3)n2)CC1 [Solid Form D, pralsetinib]",behaviour sitting in atmosphere,[8],converted to other solid forms
same,behaviour upon drying,[8],converted to solid form B
"CO[C@]1(C(=O)N[C@@H](C)c2ccc(-n3cc(F)cn3)nc2)CC[C@H](c2nc(C)cc(Nc3cc(C)[nH]n3)n2)CC1 [Solid Form I, pralsetinib]",behaviour upon drying,[8]; listed as Pattern I,lost crystallinity
"CO[C@]1(C(=O)N[C@@H](C)c2ccc(-n3cc(F)cn3)nc2)CC[C@H](c2nc(C)cc(Nc3cc(C)[nH]n3)n2)CC1 [Solid Form J, pralsetinib]",behaviour upon drying,[8],unstable and quickly converted to amorphous
same,behaviour upon drying,[8]; listed as Pattern J,either lost crystallinity or became amorphous
"CO[C@]1(C(=O)N[C@@H](C)c2ccc(-n3cc(F)cn3)nc2)CC[C@H](c2nc(C)cc(Nc3cc(C)[nH]n3)n2)CC1 [Solid Form K, pralsetinib]",behaviour upon drying,[8],unstable on drying and converted to material characterized by XRPD Pattern M
"CO[C@]1(C(=O)N[C@@H](C)c2ccc(-n3cc(F)cn3)nc2)CC[C@H](c2nc(C)cc(Nc3cc(C)[nH]n3)n2)CC1 [Solid Form L, pralsetinib]",behaviour upon drying,[8]; listed as Pattern L,stable
"CO[C@]1(C(=O)N[C@@H](C)c2ccc(-n3cc(F)cn3)nc2)CC[C@H](c2nc(C)cc(Nc3cc(C)[nH]n3)n2)CC1 [Solid Form P, pralsetinib]",behaviour upon drying,[8],unstable upon drying and converted to a mixture of material characterized by XRPD Pattern P and XRPD Pattern L and extra peaks
"CO[C@]1(C(=O)N[C@@H](C)c2ccc(-n3cc(F)cn3)nc2)CC[C@H](c2nc(C)cc(Nc3cc(C)[nH]n3)n2)CC1 [Solid Form Q, pralsetinib]",behaviour upon drying,[8],lost crystallinity
